Patent publication EP4644377A1, “LIPID COMPOUND FOR GENE DELIVERY AND LIPID NANOPARTICLE COMPRISING SAME” (NANJING CYBERNAX BIOMEDICAL TECHNOLOGY CO., LTD., priority 2022, dated 2024)

Key:
293T cells [1] = assay: In vitro delivery of luciferase mRNA by LNPs, 293T cells; type: cell-based, Human; details: 100 ng luciferase mRNA per well, 24 h; ratio to naked mRNA control; result in words
Method: (§1) Human embryonic kidney cells (293T cells) and human non-small cell lung cancer cell lines (A549 cells) were obtained from the Chinese Type Culture Collection Center and cultured in DMEM high glucose culture medium containing 10% fetal bovine serum under the environment of 37°C and 5% CO2. The cells were inoculated in a 96-well cell culture plate in a density of 32,000 cells per well. LNPs coating mRNA expressing luciferase (Trilink, USA) were taken and added into the wells at a dose of 100 ng of mRNA per well. Meanwhile, control wells were set on each culture plate, and 100 ng of naked mRNA that was not coated by LNPs was added into each well. The cell culture plate was placed in a cell incubator for 24 h of co-culture under the conditions of 37°C and 5% CO2, and then the transfection effect of mRNA was detected through a One-LumiTM firefly luciferase reporter gene detection kit. The transfection results of LNPs in 293T cells are shown in FIG. 1 to FIG. 6 and FIG. 13 (upper), and the transfection results of LNPs in A549 cells are shown in FIG. 7 to FIG. 12 and FIG. 13 (lower). The transfection efficiency is expressed as a ratio of chemiluminescent intensity of LNP group to chemiluminescent intensity of control group (direct delivery of naked luciferase mRNA that is not coated by LNP).

C57Bl/6 mice = assay: Luciferase mRNA delivery in mice, IVIS chemiluminescence; type: in vivo
Method: The animal experiments were reviewed and approved by the Ethics Committee of Zhejiang Medical College and the Ethics Committee of Zhejiang University of Technology. 6- to 8-week-old male C57Bl/6 mice were randomly grouped with 3 mice in each group. The mice in each group received a lipid nanoparticle coating mRNA expressing a luciferase via tail vein injection at a dose of 0.25 mg/kg mouse body weight (calculated by the mass of coated mRNA). […] The mRNA delivery effect of the lipid nanoparticle is quantitatively compared through a total chemiluminiscence quantity (Total Flux p/s) of a mouse whole body within unit time (shown in Table 5).
Table 13 and Table 14 show whole body chemiluminescent signals when LNPs (formulation 2) composed of the lipids in some examples deliver Flue mRNA in mice. The delivery dose of Flue mRNA was 0.25 mg/kg. 6 h after LNP injection, 150 mg/kg of D-luciferin was intraperitoneally injected into the mice, and then the whole body chemiluminescent signals were collected in the IVIS imaging system after 10 min. […]

A549 cells = assay: In vitro delivery of luciferase mRNA by LNPs, A549 cells; type: cell-based, human; details: 100 ng luciferase mRNA per well, 24 h; ratio to naked mRNA control; result in words
Method: as §1

[2] = Particle size detection of LNP (Brookhaven NanoBrook Omni, DLS); type: physicochemical
Method: Step 1. Preparation of a lipid solution and a nucleic acid solution: unless otherwise specified, all aqueous solutions involved in examples were prepared from deionized water without nucleases. An ionizable lipid, a phospholipid (disaturated phosphatidylcholine (DSPC) or dioleoylphosphatidylethanolamine (DOPE)), cholesterol and a PEG lipid (DMG-PEG2000) were mixed in a molar ratio of 50/10/38.5/1.5 (containing DSPC, formulation 1) or 36.5/16/46.5/2.5 (containing DOPE, formulation 2) and dissolved into an ethanol solution. Meanwhile, a nucleic acid (a mass ratio of ionizable lipid/nucleic acid was 10/1) was dissolved into a citrate buffer solution of pH=3, so that a final volume ratio of the ethanol solution to the citrate solution was 1/3.
Step 2. Preparation of LNP by mixing the lipid solution with the nucleic acid solution: the lipid ethanol solution and the nucleic acid aqueous solution that were prepared in Step 1 were respectively put into a sterile syringe and placed in a Precision Nanosystem Ignite instrument, the extrusion flow speeds of the ethanol solution and the water phase solution were respectively set as 3 ml/min and 9 ml/min in instrument program settings. A microfluidic chip was inserted into the instrument and LNP preparation was initiated, and then a solution mixed by the chip was collected.
Step 2.1. Preparation of an LNP solution coating nucleic acid in a porous plate: a solution of an ionizable lipid, a phospholipid (DSPC or DOPE), cholesterol and a PEG lipid (DMG-PEG2000) in ethanol was added into each well of a 96-well deep plate, so that a molar ratio of four component lipids in each well was 50/10/38.5/1.5 (containing DSPC, formulation 1) or 36.5/16/46.5/2.5 (containing DOPE, formulation 2). Then, a citrate buffer solution (pH=3, the mass of nucleic acid added into each well was 1/10 that of the ionizable lipid in this well) that was three times as ethanol in volume and dissolved with a nucleic acid molecule was quickly added into the well plate through a multi-channel pipette or an automatic liquid dispensing system and rapidly mixed, so as to obtain the LNP solution coating nucleic acid.
Step 3. Purification of the LNP solution: the LNP solution collected in Step 2 or Step 2.1 was subjected to dialysis-concentration-filtration operations, so as to obtain a final LNP solution coating nucleic acid for subsequent testing.
The LNP solution coating nucleic acid obtained in Step 3 was diluted so that the final lipid concentration was between 0.01 mg/ml and 0.1 mg/ml. The diluted solution was added into a sample reservoir, and then subjected to particle size detection in a Brookhaven NanoBrook Omni instrument.

293T cells [3] = assay: In vitro eGFP plasmid DNA transfection; type: cell-based; details: 100 ng plasmid DNA per well, 48 h, fluorescence microscope, versus lipofectamine 3000
Method: 293T cells were inoculated into a 96-well cell culture plate at a density of 40,000 cells per well, LNPs prepared from lipid 284 and lipid 424 was used to coat plasmid DNA expressing eGFP, lipofectamine 3000 was used as a control group, 100 ng of plasmid DNA coated by the above vehicle was given to cells per well, the expression of eGFP was observed through a fluorescence microscope after co-culture for 48 h.

[4] = Determination of total nucleic acid and encapsulation efficiency (Quant-iT RiboGreen RNA kit); type: physicochemical; details: LNP with RSV-mRNA, lipid ratio of formulation 1, N/P 6
Method: The content of nucleic acids in an LNP sample was determined through a Quant-iT™ RiboGreen® RNA detection kit (Thermofisher). The detection of total RNA concentration: 5 µl of to-be-detected sample was placed into 2 ml of ep tube, 245 µl of 1xTE Buffer was added, and the above materials were evenly mixed to obtain a "diluted sample". 100 µl of the above "diluted sample" was taken, 100 µl of 10% TritonX-100 solution was added, the above materials were sufficiently and evenly mixed, and then the obtained mixture was demulsified for 15 min in metal bath under the conditions of 37°C and 300 rpm; and 80 µl of 1xTE Buffer was added into an ELISA plate, 20 µl of demulsified sample was taken and added into the ELISA plate to be evenly mixed, and then 100 µl of fluorescence dye (2000-fold dilution) solution was added.
Detection of free RNA concentration: 90 µl of 1xTE Buffer was added into the ELISA plate, 10 µl of the above "diluted sample" was taken, and 100 µl of fluorescence dye (2000-fold dilution) solution was added.
Meanwhile, a series of standard solutions having different concentrations were set in the ELISA plate as quantitative standard curves. The samples were loaded onto the ELISA plate to detect fluorescence signals (with an excitation wavelength of 480 nm and an emission detection wavelength of 520). A corresponding RNA concentration was obtained after the fluorescence signal in each well was converted via the standard curve.
Calculation method of encapsulation efficiency: EE(%) = (Concentration of total mRNA−concentration of free mRNA)/(Concentration of total mRNA)∗100% [formula]

[5] = LNP formulation 2 (SM102: formulation 1), luciferase mRNA 0.25 mg/kg, tail vein, C57Bl/6 mice, whole body signal 6 h after LNP, 10 min after D-luciferin 150 mg/kg i.p.
[6] = LNPs after coating mRNA (luciferase)
[7] = LNPs (formulation 2), Flue mRNA 0.25 mg/kg, tail vein injection, whole body signal 6 h after LNP injection, 10 min after 150 mg/kg D-luciferin i.p.

Row | SMILES | Chemiluminescent signal (p/s) (C57Bl/6 mice; [5]) | PDI [2, 6] | Particle size [2, 6] [nm·days] | Chemiluminescent signal (p/s) (C57Bl/6 mice; [7]) | also measured
1 | CC/C=C\C/C=C\C/C=C\C/C=C\C/C=C\CCCC(=O)N(CCCN(C)C)C(C(=O)NCCCCCCCCCCCCCC)C(C)(C)C (stereo not shown) [Lipid 157] | 4.26E+09 |  |  |  | transfection (delivery) efficiency of LNP in 293T cells (293T cells [1]): relatively high delivery efficiency; transfection (delivery) efficiency of LNP in A549 cells (A549 cells): relatively high delivery efficiency
2 | CCCCCCCC/C=C\CCCCCCCCOC(=O)CCC(=O)N(CCCN(CC)CC)C(C(=O)NCCCC(=O)OCCCCCCCC)C(C)(C)C (stereo not shown) [Lipid 226] | 9.30E+09 | 0.19 | 207.34 ± 2.23 |  | 
3 | CCCCCCCCCCCC(=O)N(CCCN(C)C)C(C(=O)NCCCCCCCC(=O)OC(CCCCCCCC)CCCCCCCC)C(C)(C)C (stereo not shown) [Lipid 234] | 1.16E+10 | 0.17 | 240.23 ± 1.39 |  | 
4 | CCCCCCCCCCCC(=O)N(CCCN(CC)CC)C(C(=O)NCCCCCCCC(=O)OC(CCCCCCCC)CCCCCCCC)C(C)(C)C (stereo not shown) [Lipid 237] | 3.86E+09 | 0.14 | 234.57 ± 1.84 |  | 
5 | CCCCCCCCCCCC(=O)N(CCCN(C)CCCCO)C(C(=O)NCCCCCCCC(=O)OC(CCCCCCCC)CCCCCCCC)C(C)(C)C (stereo not shown) [Lipid 240] | 5.76E+08 | 0.19 | 204.35 ± 3.72 |  | 
6 | CCCCCCCCC(CC)OC(=O)CCCCCCCNC(=O)C(N(CCCN(C)C)C(=O)CCCCCCC(=O)OC(CC)CCCCCCCC)C(C)(C)C (stereo not shown) [Lipid 401] |  | 0.19 | 93.6 ± 0.84 | 5.92E+10 p/s | 
7 | CCCCCCCCC(CC)OC(=O)CCCCCCC(=O)N(CCCN(C)C)C(C(=O)NCCCCCCCC(=O)OC(CCCCCCCC)CCCCCCCC)C(C)(C)C (stereo not shown) [Lipid 402] |  | 0.25 | 84.3 ± 3.42 | 4.20E+10 p/s | 
8 | CCCCCCCCC(CC)OC(=O)CCCCCCC(=O)N(CCCN(C)C)C(C(=O)NCCCCCCOC(=O)C(CCCCCC)CCCCCCCC)C(C)(C)C (stereo not shown) [Lipid 406] |  | 0.17 | 95.9 ± 0.75 | 1.04E+11 p/s | 
9 | CCCCCCCCC(CC)OC(=O)CCCCCCCNC(=O)C(N(CCCN(C)C)C(=O)CCCCCCCCCC(=O)OC(CCCCCC)CCCCCC)C(C)(C)C (stereo not shown) [Lipid 407] |  | 0.18 | 97.4 ± 0.64 | 8.00E+10 p/s | 
10 | CCCCCCCCC(CCCCCCCC)OC(=O)CCCCCCCNC(=O)C(N(CCCN(C)C)C(=O)CCCCCCCCCC(=O)OC(CCCCCC)CCCCCC)C(C)(C)C (stereo not shown) [Lipid 408] |  | 0.18 | 101.7 ± 5.09 | 1.03E+11 p/s | 
11 | CCCCCCCC(C)COC(=O)CCCCCCCNC(=O)C(N(CCCN(C)C)C(=O)CCCCCCCCCC(=O)OC(CCCCCC)CCCCCC)C(C)(C)C (stereo not shown) [Lipid 409] |  | 0.25 | 95 ± 0.75 | 3.08E+10 p/s | 
12 | CCCCCCCCC(CCCCCCCC)OC(=O)CCCCCCCNC(=O)C(N(CCCN(C)C)C(=O)CCCCCCC(=O)OCC(C)CCCCCCC)C(C)(C)C (stereo not shown) [Lipid 420] |  | 0.22 | 110.3 ± 1.65 | 6.69E+09 p/s | 
13 | CCCCCCCCC(CCCCCC)C(=O)OCCCCCCNC(=O)C(N(CCCN(C)C)C(=O)CCCCCCC(=O)OCC(C)CCCCCCC)C(C)(C)C (stereo not shown) [Lipid 424] |  | 0.11 | 153 ± 2.11 | 8.40E+ 10 p/s | eGFP expression (delivery efficiency and positive cell ratio) (293T cells [3]): delivery efficiencies and positive cell ratios exceed those in control group lipofectamine3000
14 | CCCCCCCCC(CCCCCC)COC(=O)CCCCCCC(=O)N(CCCN(C)C)C(C(=O)NCCCCCCCC(=O)OC(CC)CCCCCCCC)C(C)(C)C (stereo not shown) [Lipid 431] |  | 0.26 | 114 ± 2.51 | 5.11E+10 p/s | 
15 | CCCCCCCCC(CCCCCC)C(=O)OCCCCCCC(=O)N(CCCN(C)C)C(C(=O)NCCCCCCCC(=O)OCC(C)CCCCCCC)C(C)(C)C (stereo not shown) [Lipid 445] |  | 0.24 | 94.7 ± 0.95 | 2.15E+09 p/s | 
16 | CCCCC/C=C\C/C=C\CCCCCCCC(=O)N(CCCN(C)C)C(C(=O)NCCCCCCCC(=O)OC(CCCCCCCC)CCCCCCCC)C(C)C (stereo not shown) [Lipid 942] |  | 0.25 | 135.8 ± 2.13 | 8.15E+08 p/s | 
17 | CCCCC/C=C\C/C=C\CCCCCCCC(=O)N(CCCN(C)C)C(C)C(=O)NCCCCCCCC(=O)OC(CCCCCCCC)CCCCCCCC (stereo not shown) [Lipid 949] |  | 0.19 | 115.8 ± 0.26 | 6.88E+05 p/s | 
18 | CCCCCCCCCCCOC(=O)CCCCCN(CCO)CCCCCCCC(=O)OC(CCCCCCCC)CCCCCCCC [SM102, heptadec-9-yl-8-((2-hydroxyethyl) (6-oxo-6-((undecyloxy)hexyl)amino) octanoate, reference compound] | 3.93E+09 |  |  |  | encapsulation efficiency [4]: 97.9%; Particle size ([2]; LNP with RSV-mRNA, lipid ratio of formulation 1, N/P 6): 96.1 nm
